This is an account of results in patent US6541506B1, “Antifungal enediynes” (Phytera Incorporated, priority 1999, dated 2003).

In one assay the test system is C. albicans DSY1024. Put plainly: Candida growth inhibition (XTT), C. albicans DSY1024. To be noted: C. albicans DSY1024 (Table 4). Format: cell-based. As to the method: (§1) There are numerous assays that can be used to measure the inhibition of growth of a fungus such as Candida. In one example, cultures of Candida, e.g., C. albicans strains DSY1024 and SC5314, C. krusei ATCC 6258, and C. glabrata ATCC 90030, are subcultured from cryopreserved stocks onto Sabouraud's dextrose agar plates. Blastoconidia are suspended into RPMI-MOPS medium and inoculated (500 cfu/well) into 96-well plates containing test compounds in a final volume of 100 μL/well. After 22 hours at 35° C., 25 μL of XTT (2,3-bis(2-methoxy-4-nitro-5-sulfophenyl)-5-(phenylamino)carbonyl]-2H-tetrazolium hydroxide), (100 μg/mL) with PMS (phenazine methyl sulfate, 5 μM) are added to each well, followed by 2 hours of shaking. Growth is assessed spectrophotometrically by measuring the appearance of soluble formazan stain at 450 nm using an Emax microplate reader. Validity of the assay is confirmed by determination of the C. albicans minimum inhibitory concentration (MIC) for known antifungal agents such as amphotericin B, 5-flucytosine, fluconazole, nikkomycin Z, and polyoxin D.
LP416E8 (AC-05081-T4-3) was an organic extract of a manipulated plant cell culture from A. corsicum.
For orientation: Formazan colour is commonly taken as a measure of viable cells.

Another assay has as its system Candida. Put plainly: Anti-Candida activity by backbone length. Format: cell-based. As to conditions: X=7. From the text:
The variable X denotes the length of a saturated carbon backbone. The antifungal activity of the claimed compounds changes in part based on the length of this backbone. […] Preferably, X is an integer between 5 and 7, inclusive, although longer carbon chains (X=8-10) may preserve or increase antifungal activity.

The subject of assay [1] is C. albicans strain #64 (sensitive to fluconazole). Details: species or system mice. To be noted: mouse, in vivo. The protocol: Immunocompetent mice (ICR, Sprague-Dawley, Indianapolis, Ind.) are infected with a pathogenic strain (e.g., strain #64) of C. albicans that is sensitive to fluconazole. After 24 hours, dissemination of infection has been shown by organ colony counts (kidney, spleen, and liver) greater than 10^5 colony forming units (CFU). Treatment is begun 24 hours after infection with dosage once a day for 10 days. Untreated control mice usually die after about 16 days. After 30 days the percent survival in the group treated with fluconazole (40 mg per kg body weight, twice a day) is about 30%. In addition to measuring animal viability, the organ fungal load (in CFU) can measured.

The subject of assay [2] is C. albicans UTR-14 (fluconazole-resistant clinical isolate). Put plainly: Fluconazole-resistant candidiasis in mice. As to conditions: fluconazole-resistant C. albicans UTR-14, 40 mg per kg body weight p.o. twice daily. The class given is in vivo. The protocol: In a similar experiment using a fluconazole-resistant clinical isolate (e.g., C. albicans UTR-14), the percent survival after 20 days of the group treated with fluconazole (40 mg per kg body weight p.o. (twice daily)) and in the untreated group is each usually 0%.

Another assay concerns C. albicans SC5314. Kind of assay: Candida growth inhibition (XTT), C. albicans SC5314. Format: cell-based. The protocol:
as §1

The test system of another assay is T. rubrum. Kind of assay: Dermatophyte growth inhibition (microdilution, NCCLS M27A), T. rubrum. The class given is cell-based, Trichophyton rubrum. As to conditions: T. rubrum, four days at 35° C., visual inspection. The protocol: (§2) The compounds of the invention are also effective against dermatophytes. Testing was performed using a microdilution method based on the NCCLS M27A antifungal protocol. Compounds to be tested were prepared in DMSO and diluted to the appropriate concentration in RPMI 1640 medium (the dermatophyte growth medium). An inoculum of each test organism was prepared from oatmeal agar plates to contain 0.5-2.5×10^3 conidia/mL. One hundred microliters of the inoculum was added to each well of a 96-well microtiter plate containing 4 μL of a test compound and 96 μL of RPMI 1640. Terbinafine (sold under the brand name Lamisil®) was used as a positive control.

The test system of another assay is T. mentagrophytes. Put plainly: Dermatophyte growth inhibition (microdilution, NCCLS M27A), T. mentagrophytes. Format: cell-based. As to conditions: T. mentagrophytes, four days at 35° C., visual inspection. As to the method:
as §2

The subject of another assay is T. tonsurans. Kind of assay: Dermatophyte growth inhibition (microdilution, NCCLS M27A), T. tonsurans. Format: cell-based. As to conditions: T. tonsurans, four days at 35° C., visual inspection. As to the method:
as §2
(In general: Dilution methods test growth across graded concentrations, often in twofold steps.)

Another assay relates to M. canis. Put plainly: Dermatophyte growth inhibition (microdilution, NCCLS M27A), M. canis. The class given is cell-based, Microsporum canis. As to conditions: M. canis, four days at 35° C., visual inspection. As to the method: as §2

SMILES strings stand for the structures. ≈ marks a conversion by molar mass, not a printed value.

In the assay with C. albicans DSY1024, `O=C(O)CCCCCCC/C=C\C#CC#Cc1ccco1` [Compound 5] returned an IC50 of 0.0039 µg/mL (≈ 0.0137 µM) and an MIC of 0.0078 µg/mL (≈ 0.0274 µM). For the same compound, in the assay on Candida, the “anti-Candida activity (ranking by backbone length X)” value is “greatest anti-Candida activity”.
In the case of `OC(Cn1cncn1)(Cn1cncn1)c1ccc(F)cc1F` [fluconazole], the “percent survival after 30 days” value in assay [1] was “about 30%”. In addition, the “percent survival after 20 days” value in assay [2] is 0%.
In the assay with C. albicans DSY1024, `C/C=C\C#CC#C/C=C/C(O)CCCCCCCC(=O)O` (stereo not shown) [Compound 6] returned an IC50 of 11.3 µg/mL (≈ 39.2 µM) and a minimal inhibitory concentration (MIC) of 12.5 µg/mL (≈ 43.3 µM). Further, the “inhibition of growth of strain SC5314” value with C. albicans SC5314 is “able to inhibit growth”. Also, in the assay with C. albicans SC5314 (C. albicans SC5314 (Table 4)), the 50% inhibitory concentration (IC50) came out at 8.5 µg/mL (≈ 29.5 µM) and the MIC was found to be 12.5 µg/mL (≈ 43.3 µM).
`O=C(O)CCCCCCC=CC#CC#Cc1ccco1` [Compound 3] showed a half-maximal inhibitory concentration (IC50) in the assay on C. albicans DSY1024 of 0.503 µg/mL (≈ 1.86 µM). Besides, the MIC in the assay with C. albicans DSY1024 was found to be 1 µg/mL (≈ 3.7 µM); against T. rubrum it was 8.0 µg/mL (≈ 29.6 µM); against T. mentagrophytes it was 2.0 µg/mL (≈ 7.4 µM); with T. tonsurans, 2.0 µg/mL (≈ 7.4 µM); against M. canis, 2.0 µg/mL (≈ 7.4 µM).

One may read the IC50 as the concentration that gives 50% inhibition. The MIC is the smallest concentration in the dilution series that meets the test's criterion for growth inhibition. Read a high MIC as a less susceptible organism.
